Measurements reported in EP4610269A1, “UROKINASE PLASMINOGEN ACTIVATOR SURFACE RECEPTOR (UPAR) LIGANDS FOR DIAGNOSTIC OR THERAPEUTIC USE” (3B Pharmaceuticals GmbH, priority 2024, dated 2025).
Where two headings read alike, the source gives them in different places. *1 amine or outer side, *2 acyl side, *3 side chain or, on linkers, in order; H or OH if unused. Where a SMILES comes first, the peptide text is derived from it. Bridges are numbered along the chain shown (N, C = ends). Side-chain parts run from the residue outwards. [ ]: non-standard residue; d: D form. The star is where a group is joined. X12 = N=c1ccc2c(-c3ccc(C(=O)NCCCOCCOCCOCCCN*)cc3C(=O)O)c3ccc(N)c(S(=O)(=O)O)c3oc-2c1S(=O)(=O)O; DOTA(Lu) = O=C1CN2CCN3CCN(CC(=O)*)CCN(CC2)CC(=O)[O][Lu]([O]1)[O]C(=O)C3; X11 = O=C(CCCC[C@@H]1SC[C@@H]2NC(=O)N[C@@H]21)NCCCOCCOCCOCCCN*; Pro(cis-4-F) = O=C(O)[C@@H]1C[C@H](F)CN1; Dopa = N[C@@H](Cc1ccc(O)c(O)c1)C(=O)O; Hyp = O=C(O)[C@@H]1C[C@@H](O)CN1; X10 = CC(C)C[C@@H](C(=O)*)N(C)C; Cit = NC(=O)NCCC[C@H](N)C(=O)O; Butoxycarbonyl = CCCCOC(=O)*; NMeK = CN[C@@H](CCCCN)C(=O)O; Phg = N[C@H](C(=O)O)c1ccccc1; Suc = O=C(CCC(=O)[*:2])[*:1]; Nva = CCC[C@H](N)C(=O)O; Pentanoyl = CCCCC(=O)*; Ahx = NCCCCCC(=O)O; Sar = CNCC(=O)O

What was measured:
[1] = target: T1, uPAR-expressing HEC-265 human endometrial adenocarcinoma cells (Homo sapiens, UniProt Q03405); assay: Competitive FACS binding assay; conditions: pIC50 category of FACS binding
T1 construct: Cell surface uPAR-expressing HEC-265 human endometrial adenocarcinoma cells; host or cells: HEC-265
Method: In order to determine binding of compounds according to the present invention to uPAR-expressing cells, a competitive FACS binding assay was established.
Cell surface uPAR-expressing HEC-265 human endometrial adenocarcinoma cells (Japanese Collection of Research Bioresources, #JCRB1142) were cultured in MEM Eagle with stable glutamine (Pan Biotech, #P04-09500) including 15% fetal bovine serum (Pan Biotech, #P30-3306) and 100 U/ml penicillin and 100 µg/mL streptomycin (Pan Biotech, #P06-07100). Cells were detached with Cell Dissociation Buffer (Thermo Scientific, #13151014) and washed in FACS buffer (PBS (Pan Biotech, #P04-36500) including 1% BSA (SeraCare, #AP-4510-80). Cells were diluted in FACS buffer to a final concentration of 500.000 cells per ml and 200 µl of the cell suspension are transferred to a u-shaped non-binding 96-well plate (Greiner Bio-One, #650901).
For IC50 determination, cells were incubated with 10 nM Bio--Ttds--Ttds--Ttds--Ttds-D-Cha-FsrYLWS-NH2) in the presence of increasing concentrations of non-labeled test compounds at 4°C for 1 hour. Cells were washed twice in FACS buffer. An additional incubation step with 1 µg/mL APC-Streptavidin (Miltenyi; #130-106-791) in 50 µL FACS buffer for 30 minutes on ice was performed followed by two washes with FACS buffer. Cells were resuspended in 200 µl FACS buffer and analyzed in an Attune NxT flow cytometer. Median fluorescence intensities (APC channel) were calculated by Attune NxT software and plotted against peptide concentrations. Four parameter logistic (4PL) curve fitting and pIC50 calculations were performed using ActivityBase software.

human uPAR (uPAR-Fc) = target: T2, human uPAR (uPAR-Fc) (Homo sapiens, UniProt Q03405); assay: Surface plasmon resonance (SPR) assay, single cycle kinetics; assay type: binding
T2 construct: comprising amino acids Leu23-Arg303 according to UniProt entry Q03405.1; purchased R&D Systems 10378-UK-100
Method: Surface plasmon resonance (SPR) is an optical technique used to measure molecular interactions in real time. SPR occur when plane-polarized light hits a metal film under total internal reflection conditions. SPR signal is directly dependent on the refractive index of the medium on the sensor chip. In an SPR experiment, one molecule (i.e. uPAR) is immobilized on a sensor chip and binding to a second molecule (i.e. test compounds) is measured under flow. The binding of the compound on the surface changes the refractive index. In responses the reflection angle changes as compounds bind and dissociate on the immobilized protein on the surface. This response is measured in resonance units (RU). The RUs are proportional to the number of molecules bound to the surface. […] Kinetic binding constants and equilibrium binding constants can be derived from the sensorgrams.
Surface plasmon resonance (SPR) studies were performed using a Biacore™ T200 or S200 SPR system (Cytiva, formerly GE Life Sciences) to assess binding of compounds to recombinant uPAR protein.
In this example recombinant protein comprising the extracellular domains of human uPAR (uPAR-Fc, R&D Systems, CAT 10378-UK-100, comprising amino acids Leu23-Arg303 according to UniProt entry Q03405.1 and Fc region of human IgG1 at the C-terminus) was immobilized on a Protein A-Chip (Cytiva, CAT 29127555) according to the supplier's instructions. uPAR-Fc was diluted in Running Buffer (10 mM HEPES, 150 mM NaCl, 50 µM EDTA, 0.1% DMSO, 0.05% Tween-20, pH 7.4) to a final concentration of 100 nM and then flushed over the Protein A-Chip to immobilized ~2000 RUs.
Stock solutions of test compounds were prepared by dissolving each compound in DMSO. DMSO stock solution were diluted 1: 1000 in Running Buffer without DMSO. Further sequential dilutions were made with Running Buffer containing 0.1% DMSO. SPR binding analyses were performed in Single Cycle Kinetic (SCK) mode at 25°C. Flow cell without immobilized uPAR-Fc served as reference flow cell. The chip was regenerated with 10 mM Glycine, pH 1,5 to remove the uPAR-Fc from the chip surface after each SCK run. After every three SCK measurements, a blank run with Running Buffer instead of test compound was included to correct for baseline drifts (double reference substraction method). Table 11: SPR protocol steps for SCK with uPAR-Fc immobilized on a Protein A-Chip.
For each test compound, SPR raw data sensorgrams were recorded using the Biacore™ T200 or S200 control software. Sensorgrams were processed and analyzed with the Biacore™ Insight Evaluation software. […] The reference subtracted sensorgram for each test compound was further corrected for baseline drift by subtracting the sensorgram of a reference subtracted blank run (Running Buffer only). The dissociation constant (KD) was calculated from the double reference subtracted sensorgrams using the 1:1 Langmuir binding model. The pKD value (negative decadic logarithm of dissociation constant) was calculated using Microsoft Excel.

[2] = pKD category for uPAR SPR activity assay, uPAR-Fc on Protein A-Chip, single cycle kinetics, 25°C, read-out: pKD CAT (converted)

T2 sequence (Q03405 23-303): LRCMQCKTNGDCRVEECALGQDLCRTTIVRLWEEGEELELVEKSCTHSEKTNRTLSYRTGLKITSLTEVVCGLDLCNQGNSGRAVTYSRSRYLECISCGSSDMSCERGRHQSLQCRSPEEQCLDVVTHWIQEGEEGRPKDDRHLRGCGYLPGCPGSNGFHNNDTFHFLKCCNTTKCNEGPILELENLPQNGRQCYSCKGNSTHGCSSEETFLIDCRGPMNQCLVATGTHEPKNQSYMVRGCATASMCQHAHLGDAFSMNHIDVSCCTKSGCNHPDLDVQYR
T1 sequence (Q03405 23-335): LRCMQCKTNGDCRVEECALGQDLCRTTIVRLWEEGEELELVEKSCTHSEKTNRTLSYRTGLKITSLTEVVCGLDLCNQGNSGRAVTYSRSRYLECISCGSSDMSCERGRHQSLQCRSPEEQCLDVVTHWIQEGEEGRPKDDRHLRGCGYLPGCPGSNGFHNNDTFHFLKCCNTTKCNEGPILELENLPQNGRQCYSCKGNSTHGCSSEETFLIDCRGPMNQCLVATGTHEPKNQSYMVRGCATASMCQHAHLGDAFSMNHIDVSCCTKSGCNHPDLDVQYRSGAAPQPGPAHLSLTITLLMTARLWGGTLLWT

Molecule	pIC50 CAT [1]	Kd (human uPAR (uPAR-Fc); [2]) [nM]	further results
Pent-[Cys-Cit-Lys(LuDOTA)-Tyr-Phe-Pro-Nmg-Ile-Nva-Cys]-NH2 (Pentanoyl-C[Cit]K(DOTA(Lu))YFP[Sar]I[Nva]C-NH2; disulfide 1-10; not fully specified; also: Lu(III) complexed by DOTA) [UPAR-348]	A (pIC50 values ≥8.0)	–	–
CCCCC(=O)N[C@H]1CSSC[C@@H](C(N)=O)NC(=O)[C@H](CCC)NC(=O)[C@H]([C@@H](C)CC)NC(=O)[C@H](CCCCN)N(C)C(=O)[C@@H]2CCCN2C(=O)[C@H](Cc2ccccc2)NC(=O)[C@H](Cc2ccc(O)cc2)NC(=O)[C@H](CCCCNC(=O)CCC(=O)NCCCOCCOCCOCCCNC(=O)CCCC[C@@H]2SC[C@@H]3NC(=O)N[C@@H]32)NC(=O)[C@H](CCCNC(N)=O)NC1=O [UPAR-317, Pent-[Cys-Cit-Lys(Bio-Ttds)-Tyr-Phe-Pro-Nmk-Ile-Nva-Cys]-NH2] (Pentanoyl-C[Cit]K([Suc-X11])YFP[NMeK]I[Nva]C-NH2; disulfide 1-10)	–	–	Kd (human uPAR (uPAR-Fc); pKD category for uPAR SPR activity assay, uPAR-Fc on Protein A-Chip, 25°C, read-out: pKD CAT (converted)): 10 to 100 nM
CCC[C@@H]1NC(=O)[C@H]([C@@H](C)CC)NC(=O)[C@@H]2C[C@@H](O)CN2C(=O)[C@@H]2CCCN2C(=O)[C@H](Cc2ccccc2)NC(=O)[C@H](Cc2ccc(O)cc2)NC(=O)[C@H](CCC(N)=O)NC(=O)[C@H](CCCNC(=N)N)NC(=O)[C@@H](NC(=O)[C@H](CC(C)C)N(C)C)CSSC[C@@H](C(N)=O)NC1=O [UPAR-487, Me-Nml-[Cys-Arg-Gln-Tyr-Phe-Pro-Hyp-Ile-Nva-Cys]-NH2] (X10-CRQYFP[Hyp]I[Nva]C-NH2; disulfide 1-10)	–	1.58 to 10	–
CCCCOC(=O)N[C@H]1CSSC[C@@H](C(N)=O)NC(=O)[C@H](CCC)NC(=O)[C@H]([C@@H](C)CC)NC(=O)[C@@H]2C[C@@H](O)CN2C(=O)[C@@H]2C[C@H](F)CN2C(=O)[C@H](Cc2ccccc2)NC(=O)[C@H](Cc2ccc(O)c(O)c2)NC(=O)[C@H](CCCCNC(=O)CCC(=O)NCCCOCCOCCOCCCNC(=O)c2ccc(-c3c4ccc(=N)c(S(=O)(=O)O)c-4oc4c(S(=O)(=O)O)c(N)ccc34)c(C(=O)O)c2)NC(=O)[C@H]([C@@H](C)O)NC1=O [UPAR-479, Butoc-[Cys-Thr-Lys(AF488-Ttds)-Dopa-Phe-4Cfp-Hyp-Ile-Nva-Cys]-NH2] (Butoxycarbonyl-CTK([Suc-X12])[Dopa]F[Pro(cis-4-F)][Hyp]I[Nva]C-NH2; disulfide 1-10)	–	–	Kd (human uPAR (uPAR-Fc)): < 1.58 nM

More lines, main results first:

pIC50 CAT [1]	Kd (human uPAR (uPAR-Fc); [2]) [nM]	Molecule	further results
A (pIC50 values ≥8.0)	–	LuDOTA-Ahx-Leu-[Cys-Arg-Gln-Tyr-Phe-Pro-ala-Ile-Leu-Cys]-NH2 ({DOTA(Lu)}-[Ahx]LCRQYFP[dA]ILC-NH2; disulfide 3-12; not fully specified; printed as LuDOTA-Ahx-Leu-[Cys-Arg-Gln-Tyr-Phe-Pro-ala-Ile-Leu-Cys]-NH₂; also: Lu(III) complexed by DOTA) [UPAR-170]	–
–	< 1.58	CCC[C@@H]1NC(=O)[C@H]([C@@H](C)CC)NC(=O)[C@@H]2C[C@@H](O)CN2C(=O)[C@@H]2CCCN2C(=O)[C@H](Cc2ccccc2)NC(=O)[C@H](Cc2ccc(O)cc2)NC(=O)[C@H](CCC(N)=O)NC(=O)[C@H](CCCNC(=N)N)NC(=O)[C@@H](NC(=O)[C@@H](NC(C)=O)c2ccccc2)CSSC[C@@H](C(N)=O)NC1=O [UPAR-486, Ac-Phg-[Cys-Arg-Gln-Tyr-Phe-Pro-Hyp-Ile-Nva-Cys]-NH2] (Ac-[Phg]CRQYFP[Hyp]I[Nva]C-NH2; disulfide 2-11)	–
